# Results from patent US20030073206A1, “Use of xylene monooxygenase for the oxidation of substituted monocyclic aromatic compounds” (priority 2001, published 2003).
# Key:
# [1] = tested on: xylene monooxygenase (xylM and xylA) cloned from Sphingomonas strain ASU1; assay: Oxidation of p-xylene by Escherichia coli recombinant with cloned ASU1 xylene monooxygenase genes (Clone 4a), HPLC of culture supernatant; format: cell-based; settings: Clone 4a culture in M9 medium with p-xylene, 37° C., after 24 h of incubation
# Description: (§1) Standard M9 minimal medium were used to assay for oxidation of p-xylene by Escherichia coli with cloned xylene monooxygenase. The M9 medium consisted of 42.3 mM Na2HPO4, 22.1 mM KH2PO4, 8.6 mM NaCl, 18.7 mM NH4Cl, 2 mM MgSO4 and 0.1 mM CaCl2, 0.4% of glycerol was used as the carbon/energy source.
# (§2) Analyses were performed on a Hewlett Packard 1100 series with a photo diode UV-visible detector set at 230 nm (primary wavelength), 254 nm (secondary wavelength) and 450 nm as background reference and a LC/MSD-ESI negative ion spectrophotometer. The column was a Hewlett Packard part # 880967.901 Zorbax® SB-C8 (4.6 mm×25 cm), purchased from Agilient Technologies (Palo Alto, Calif.). The column temperature was controlled at 50° C. Mobile phase was […] ammonium acetate (20 mL 1 M ammonium acetate in 1800 mL water (solvent-2=S-2)) and acetonitrile (solvent-1=S-1). […]
# (§3) The conversion of p-xylene to 4-hydroxymethylbenzoic acid was monitored by reverse phase HPLC. […]
# (§4) Escherichia coli strain TOP10(pCR®2.1 TOPO™) and Escherichia coli clones expressing xylene monooxygenase (Clone 4a and Clone 6f) were inoculated into 500 mL Erlenmyer flasks containing 50 mL of M-9 supplemented with tryptophan (100 μg/mL), glycerol (0.4%), casamino acids (0.4%) and 50 μg/mL ampicillin. […] The sample supernatants were passed through 0.22 μm Acrodisc® CR PFTE filters and analyzed for metabolites of p-xylene by HPLC.
# [2] = target: T1, xylene monooxygenase (xylM and xylA) cloned from plasmid pWWO (Pseudomonas putida, UniProt P21395); assay: Oxidation of p-xylene by Escherichia coli recombinant with cloned pWWO xylene monooxygenase genes (Clone 6f), HPLC of culture supernatant; format: cell-based; settings: Clone 6f culture in M9 medium with p-xylene, 37° C., after 24 h of incubation
# T1 construct: expressed in transfected cells; host or cells: Escherichia coli TOP10 carrying pCR2.1-TOPO with a 2.4 kb pWWO xylM-xylA PCR fragment from P. putida ATCC 33015 (Clone 6f)
# Description: as §1, §2, §3, §4
# [3] = tested on: Sphingomonas strain ASU1; assay: Carbon source utilization for strain ASU1 (growth on S12 agar with aromatic compounds); format: cell-based, Sphingomonas sp.; settings: compound as sole source of carbon and energy, 28° C.
# Description: S12 agar was used to isolate bacteria from liquid enrichment cultures that grow on 2,6-dimethylnaphthalene (2,6-DMN) and to test isolates for growth with various sources of carbon and energy. S12 agar was prepared by adding 1.5% Noble agar (DIFCO) to S12 medium.
# Bacteria that grow on 2,6-DMN were isolated from an enrichment culture. The enrichment culture was established by inoculating 0.1 mL of activated sludge into 10 mL of S12 medium in a 125 mL screw cap Erlenmeyer flask. The activated sludge was obtained from a wastewater treatment facility in Ponco City. The enrichment culture was supplemented with adding yeast extract (0.001 % final concentration) by adding a few flakes of 2,6-DMN directly to the culture medium. The enrichment culture was incubated at 28° C. with reciprocal shaking. The culture was diluted every 4 to 7 d by replacing 9 mL of the culture with the same volume of S12 medium with 0.001% yeast extract and a few additional flakes of 2,6-DMN. Bacteria that utilized 2,6-DMN as a sole source of carbon and energy were isolated by spreading samples of the enrichment culture onto S12 agar. 2,6-DMN was placed on the interior of each Petri dish lid. The Petri dishes were sealed with parafilm and incubated upside down at 28° C. Representative bacterial colonies were then tested for the ability to use 2,6-DMN as a sole source of carbon and energy. […]
# T1 sequence (P21395 whole entry, the tested form may be a part): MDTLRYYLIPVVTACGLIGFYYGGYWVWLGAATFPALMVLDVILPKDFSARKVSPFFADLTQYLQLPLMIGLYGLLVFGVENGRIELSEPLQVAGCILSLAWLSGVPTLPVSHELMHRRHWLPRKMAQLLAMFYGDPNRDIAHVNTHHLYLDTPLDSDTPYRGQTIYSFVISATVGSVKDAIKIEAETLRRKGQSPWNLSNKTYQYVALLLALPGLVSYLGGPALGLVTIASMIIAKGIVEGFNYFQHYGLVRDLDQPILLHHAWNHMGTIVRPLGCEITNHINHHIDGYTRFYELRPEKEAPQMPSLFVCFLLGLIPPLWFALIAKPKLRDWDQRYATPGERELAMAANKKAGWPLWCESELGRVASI
smiles,measurement,setting,value
Cc1ccc(C)cc1 [p-xylene],p-xylene metabolites detected by HPLC,[1],Three p-xylene metabolites were detected
same,p-xylene metabolites detected by HPLC,[2],Three p-xylene metabolites were detected
"Cc1ccc2cc(C)ccc2c1 [2,6-dimethylnaphthalene]",Growth on Carbon Source,"[3]; listed as 2,6-DMN",able to grow
c1ccccc1 [Benzene],Growth on Carbon Source,[3],unable to utilize
